The record followed here is patent US6465395B2, “Substituted methylene pyrazolinones and the herbicidal use thereof” (BASF Aktiengesellschaft, priority 2000, dated 2002).

Molecules are shown by their SMILES.

What all share (experiment): Postemergence herbicidal evaluation
Holding throughout (format): in vivo
What all share (parameters): scale not given here

The test system of assay [1] is ABUTH, Velvetleaf, Abutilon theophrasti, Medic. How it is done:
(§1) The postemergence herbicidal activity of the compounds of the present invention is evaluated by the following tests. Seedling plants are grown in jiffy flats for about two weeks. The test compounds are dispersed in 80/20 (v/v) acetone/water mixtures containing 1.0% SUN-IT®II, a methylated seed oil, in sufficient quantities to provide the equivalent of about 0.006 kg/ha to 0.800 kg/ha of active compound when applied to the plants through a spray nozzle operating at 40 psi for a predetermined time. After spraying, the plants are placed on greenhouse benches and are cared for in accordance with conventional greenhouse procedures. Approximately two to three weeks after treatment, the seedling plants are examined and rated according to the rating system set forth below. Where more than one test is involved for a given compound, the data are averaged.

Assay [2] has as its system AMBEL, Ragweed, Ambrosia artemisifolia, L. On the procedure: as §1
The test system of assay [3] is CHEAL, Lambsquarters, Chenopodium album, L. On the procedure: as §1
Assay [4] deals with ECHCG, Barnyardgrass, Echinochloa crus-galli, (L.) Beau. How it is done: as §1
Assay [5] has as its system SETVI, Foxtail, Green, Setaria viridis, (L.) Beau. How it is done: as §1
Assay [6] deals with ZEAMX, Corn, Field, Zea mays, L. To be noted: crop (corn). How it is done: as §1

With `Cc1c(C(=C2C=NN(C)C2=O)N(C)C)ccc2c1C(C)(C)CS2(=O)=O` [Example 2, 4-[(Z)-(2,3-Dihydro-3,3,4-trimethylbenzo[b]thien-5-yl)(dimethylamino)methylene]-1-methyl-2-pyrazolin-5-one S,S-dioxide], the “Herbicide rating ABUTH” value in assay [1] (0.0125 kg/ha), in assay [1] (0.0250 kg/ha), in assay [1] (0.0500 kg/ha) and in assay [1] (0.1000 kg/ha) was 0.0 throughout. In addition, the “Herbicide rating AMBEL” value in assay [2] (0.0125 kg/ha), in assay [2] (0.0250 kg/ha), in assay [2] (0.0500 kg/ha) and in assay [2] (0.1000 kg/ha) was 0.0 in each case. Besides, the “Herbicide rating CHEAL” value in assay [3] (0.0125 kg/ha), in assay [3] (0.0250 kg/ha), in assay [3] (0.0500 kg/ha) and in assay [3] (0.1000 kg/ha) was 0.0 in each case. The “Herbicide rating ECHCG” value in assay [4] (0.0125 kg/ha), in assay [4] (0.0250 kg/ha), in assay [4] (0.0500 kg/ha) and in assay [4] (0.1000 kg/ha) was 0.0 each time. Besides, the “Herbicide rating SETVI” value in assay [5] (0.0125 kg/ha), in assay [5] (0.0250 kg/ha), in assay [5] (0.0500 kg/ha) and in assay [5] (0.1000 kg/ha) was 0.0 throughout. Further, the “Herbicide rating ZEAMX” value in assay [6] (0.0125 kg/ha), in assay [6] (0.0250 kg/ha), in assay [6] (0.0500 kg/ha) and in assay [6] (0.1000 kg/ha) was 0.0 each time.
For the compound `COc1ccc(OC(=C2C=NN(C)C2=O)c2ccc3c(c2C)C(C)(C)CS3(=O)=O)cc1` [Example 3, 4-[(Z)-(2,3-Dihydro-3,3,4-trimethylbenzo-[b]thien-5-yl)(p-methoxyphenoxy)methylene]-1-methyl-2-pyrazolin-5-one, S,S-dioxide], the “Herbicide rating ABUTH” value stood at 2.0 in assay [1] (0.0125 kg/ha), 4.0 in assay [1] (0.0250 kg/ha), 7.0 in assay [1] (0.0500 kg/ha) and 7.0 in assay [1] (0.1000 kg/ha). Further, the “Herbicide rating AMBEL” value was 2.0 in assay [2] (0.0125 kg/ha), 4.0 in assay [2] (0.0250 kg/ha), 7.0 in assay [2] (0.0500 kg/ha) and 7.0 in assay [2] (0.1000 kg/ha). Besides, the “Herbicide rating CHEAL” value in assay [3] (0.0125 kg/ha) was found to be 6.0; in assay [3] (0.0250 kg/ha), 6.0; in assay [3] (0.0500 kg/ha) it was 8.0; in assay [3] (0.1000 kg/ha) it was 9.0. In addition, the “Herbicide rating ECHCG” value in assay [4] (0.0125 kg/ha) was 2.0; in assay [4] (0.0250 kg/ha), 3.0; in assay [4] (0.0500 kg/ha), 4.0; in assay [4] (0.1000 kg/ha), 6.0. Besides, the “Herbicide rating SETVI” value in assay [5] (0.0125 kg/ha) was 1.0; in assay [5] (0.0250 kg/ha), 3.0; in assay [5] (0.0500 kg/ha) it was 5.0; in assay [5] (0.1000 kg/ha), 7.0. The “Herbicide rating ZEAMX” value is on record as 0.0 in assay [6] (0.0125 kg/ha), 0.0 in assay [6] (0.0250 kg/ha), 0.0 in assay [6] (0.0500 kg/ha) and 2.0 in assay [6] (0.1000 kg/ha).
